Three molecules from ChEMBL document CHEMBL1134009, “The discovery of a potent, intracellular, orally bioavailable, long duration inhibitor of human neutrophil elastase--GW311616A a development candidate” (Bioorg Med Chem Lett, 2001) can be followed below.

The target of one data set is T1, Neutrophil elastase (Homo sapiens, UniProt P08246).
T1 sequence (P08246 whole entry): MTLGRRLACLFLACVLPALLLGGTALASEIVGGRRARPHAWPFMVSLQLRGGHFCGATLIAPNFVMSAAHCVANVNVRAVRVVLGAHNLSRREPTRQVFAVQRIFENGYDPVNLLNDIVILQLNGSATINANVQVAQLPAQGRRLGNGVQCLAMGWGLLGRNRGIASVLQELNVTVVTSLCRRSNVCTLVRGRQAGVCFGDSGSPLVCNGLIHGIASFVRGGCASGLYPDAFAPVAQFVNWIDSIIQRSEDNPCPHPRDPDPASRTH
The data set is described as follows: Inhibitory concentration against Elastase.

Data set [1] has as its system Cricetulus griseus. The data set is described as follows: Percent inhibition of intraneutrophil elastase in hamster bronchoalveolar lavage 6 hours after oral administration at a dose of 0.73 mg/kg. The data set is classed as organism-based. More on the design: dose 0.73 mg/kg. Particulars: Lung.
A further data set is filed under the species Homo sapiens. The data set is described as follows: Residual elastase activity was evaluated after incubation with human whole blood for 30 min. The data set is classed as functional. Particulars: 0.5 h.
In data set [2] the test system is Cricetulus griseus. The data set is described as follows: Percent inhibition of intraneutrophil elastase in hamster bronchoalveolar lavage 6 hours after oral administration at a dose of 2.2 mg/kg. In kind it is organism-based. Also noted: dose 2.2 mg/kg. Particulars: Lung.
Data set [3] in a line: Half life of compound was determined in hamster blood. In kind it is ADME, tissue-based, Cricetulus griseus. The conditions noted are these: chinese hamster.
Data set [4] is described as follows: Bioavailability in hamster was determined. The data set is classed as ADME, organism-based, Cricetulus griseus. Particulars: chinese hamster, in vivo.
Data set [5] has as its system Cricetulus griseus. The data set is described as follows: Percent inhibition of intraneutrophil elastase in hamster bronchoalveolar lavage 6 hours after oral administration at a dose 2.2 mg/kg. The data set is classed as organism-based. More on the design: dose 2.2 mg/kg. The conditions noted are these: Lung.
Data set [6] can be described thus: Half life of compound was determined in rat blood. The data set is classed as ADME.
The subject of data set [7] is Cricetulus griseus. The data set is described as follows: Percent inhibition of intraneutrophil elastase in hamster bronchoalveolar lavage at the dose 20 mg/kg 6 hours after oral administration. Particulars: Lung. The data set is classed as organism-based. More on the design: dose 20 mg/kg.
The nature of data set [8]: Half life of compound was determined in dog blood. In kind it is ADME, Canis lupus familiaris.
Data set [9] is described as follows: Plasma clearance was measured in hamster at the dose of 3 mg/kg by intravenous administration. The conditions noted are these: chinese hamster, read-out: Clp. In kind it is ADME, organism-based, Cricetulus griseus. Also noted: dose 3 mg/kg, route intravenous.
Data set [10] can be described thus: Half life of compound was determined in human blood. The data set is classed as ADME, tissue-based.
Data set [11] in a line: Plasma clearance was measured in hamster at the dose of 10 mg/kg by peroral administration. The data set is classed as ADME, organism-based, Cricetulus griseus. Also noted: dose 10 mg/kg, route oral. Particulars: chinese hamster, po, read-out: Clp.
The test system of data set [12] is Cricetulus griseus. The data set is described as follows: Percent inhibition of intraneutrophil elastase in hamster bronchoalveolar lavage 6 hours after oral administration at a dose of 20 mg/kg. The data set is classed as organism-based. Also noted: dose 20 mg/kg. The conditions noted are these: Lung.
The nature of data set [13]: Bioavailability in hamster at a dose of 3 mg/kg by oral administration. The data set is classed as ADME, organism-based, Cricetulus griseus. The conditions noted are these: chinese hamster, in vivo.
A short description of data set [14]: Bioavailability in hamster at a dose of 3 mg/kg by […] administration. In kind it is ADME, organism-based, Cricetulus griseus. The conditions noted are these: chinese hamster, in vivo.

The structures appear in SMILES notation. Some results are limits rather than exact numbers.

With `CC(C)[C@H]1C(=O)N(S(C)(=O)=O)[C@H]2CN(C(=O)/C=C/CN3CCCCC3)CC12` (stereo not given in full), the concentration for half-maximal inhibition (IC50) against Neutrophil elastase is 0.026 µM; in the data set filed under Homo sapiens, 1.8 µM. In addition, the inhibition with Cricetulus griseus [1] was determined as 33%; in the data set with Cricetulus griseus [2], 77%.

With `CC(C)[C@H]1C(=O)N(S(C)(=O)=O)[C@H]2CN(C(=O)CCN3CCCCC3)C[C@H]12.Cl`, the half-life was > 6 h in [3], 3.5 h in data set [6], > 6 h in data set [8] and > 6 h in [10]. At Neutrophil elastase, this molecule displayed an IC50 of 0.242 µM. In data set [4], this molecule yielded a bioavailability of 70%. For the same molecule, the inhibition with Cricetulus griseus [5] is 20%; in the data set on Cricetulus griseus [7] it was 88%. Besides, the clearance in [9] came to 60 mL/min/kg. Besides, in data set [11], the CL/F was determined as 60 mL/min/kg.

In the case of `CCC[C@H]1C(=O)N(S(C)(=O)=O)[C@H]2CN(C(=O)CCN3CCCCC3)C[C@H]12.Cl`, the half-life in data set [3] was 1.4 h; in data set [6], 0.3 h; in [8] it was 3.5 h; in data set [10], 3.7 h. At Neutrophil elastase, this molecule returned an IC50 of 0.12 µM. The inhibition is 75% in the data set on Cricetulus griseus [12] and 4% in the data set with Cricetulus griseus [2]. Moreover, the clearance in [9] stood at 140 mL/min/kg. For the same molecule, the bioavailability in [13] and in data set [14] was 49% each time. Moreover, the CL/F in data set [11] was 140 mL/min/kg.

For orientation: IC50 means the concentration needed to halve the response being measured. Lower therefore signals inhibition by little substance. The term inhibition denotes the share of the control response that was lost under treatment. The low end stands for a response near the control, the high end for a response far below the control. The term half-life denotes the time needed for the level to fall by half in the phase considered. One may read the bioavailability as the share of a dose that reaches the circulation, judged against a reference dose that is usually intravenous. Lower therefore signals little systemic uptake.
